Measured values reported in patent US9994546B2, “Cyclopropylamines as LSD1 inhibitors” (Incyte Corporation, priority 2014, dated 2018).

target: LSD-1 enzyme (Homo sapiens (Human), UniProt O60341); assay: LANCE LSD1/KDM1A demethylase assay (LSD1 histone demethylase biochemical assay); settings: 1 nM LSD-1 enzyme, 1 hour preincubation at 25° C., 0.4 μM biotin-labeled Histone H3 peptide substrate
Method: LANCE LSD1/KDM1A demethylase assay—10 μL of 1 nM LSD-1 enzyme (ENZO BML-SE544-0050) in the assay buffer (50 mM Tris, pH 7.5, 0.01% Tween-20, 25 mM NaCl, 5 mM DTT) were preincubated for 1 hour at 25° C. with 0.8 μL compound/DMSO dotted in black 384 well polystyrene plates. […] After stopping the reactions plates were incubated for 30 minutes and read on a PHERAstar FS plate reader (BMG Labtech).

| Structure (SMILES) | IC50 [nM] |
| --- | --- |
| CC(C)NC(=O)c1cc(F)c(N2CC(CC#N)(N3CCC(CN[C@@H]4C[C@H]4c4ccccc4)CC3)C2)cc1F (relative stereo) [Example 35, 4-[3-(Cyanomethyl)-3-(4-{[(trans-2-phenylcyclopropyl)amino]methyl}piperidin-1-yl)azetidin-1-yl]-2,5-difluoro-N-isopropylbenzamide] | ≤ 100 |
| N#CCC1(N2CCC(CN[C@@H]3C[C@H]3c3ccccc3)CC2)CN(c2ncccc2C(F)(F)F)C1 (relative stereo) [Example 36, {3-(4-{[(trans-2-Phenylcyclopropyl)amino]methyl}piperidin-1-yl)-1-[3-(trifluoromethyl)pyridin-2-yl]azetidin-3-yl}acetonitrile] | ≤ 100 |
| N#CCC1(N2CCC(CN[C@@H]3C[C@H]3c3ccccc3)CC2)CN(c2ccc(C(F)(F)F)cn2)C1 (relative stereo) [Example 37, {3-(4-{[(trans-2-Phenylcyclopropyl)amino]methyl}piperidin-1-yl)-1-[5-(trifluoromethyl)pyridin-2-yl]azetidin-3-yl}acetonitrile] | ≤ 100 |
| N#CCC1(N2CCC(CN[C@@H]3C[C@H]3c3ccccc3)CC2)CN(c2cccc(Cl)c2C#N)C1 (relative stereo) [Example 38, 2-Chloro-6-[3-(cyanomethyl)-3-(4-{[(trans-2-phenylcyclopropyl)amino]methyl}piperidin-1-yl)azetidin-1-yl]benzonitrile] | ≤ 100 |
| N#CCC1(N2CCC(CN[C@@H]3C[C@H]3c3ccccc3)CC2)CN(c2ccccc2C#N)C1 (relative stereo) [Example 39, 2-[3-(Cyanomethyl)-3-(4-{[(trans-2-phenylcyclopropyl)amino]methyl}piperidin-1-yl)azetidin-1-yl]benzonitrile] | ≤ 100 |
| N#CCC1(N2CCC(CN[C@@H]3C[C@H]3c3ccccc3)CC2)CN(c2ccc(C#N)cc2)C1 (relative stereo) [Example 40, 4-[3-(Cyanomethyl)-3-(4-{[(trans-2-phenylcyclopropyl)amino]methyl}piperidin-1-yl)azetidin-1-yl]benzonitrile] | ≤ 100 |
| COC(=O)N1CC(CC#N)(N2CCC(CN[C@@H]3C[C@H]3c3ccccc3)CC2)C1 (relative stereo) [Example 41, Methyl 3-(cyanomethyl)-3-(4-{[(trans-2-phenylcyclopropyl)amino]methyl}piperidin-1-yl)azetidine-1-carboxylate] | ≤ 100 |
| N#CCC1(N2CCC(CN[C@@H]3C[C@H]3c3ccccc3)CC2)CN(C(=O)Nc2ccc(F)cc2F)C1 (relative stereo) [Example 42, 3-(Cyanomethyl)-N-(2,4-difluorophenyl)-3-(4-{[(trans-2-phenylcyclopropyl)amino]methyl}piperidin-1-yl)azetidine-1-carboxamide] | ≤ 100 |
| N#CCC1(N2CCC(CN[C@@H]3C[C@H]3c3ccccc3)CC2)CN(C(=O)Nc2cccc(Cl)c2F)C1 (relative stereo) [Example 43, N-(3-Chloro-2-fluorophenyl)-3-(cyanomethyl)-3-(4-{[(trans-2-phenylcyclopropyl)amino]methyl}piperidin-1-yl)azetidine-1-carboxamide] | ≤ 100 |
| N#CCC1(N2CCC(CN[C@@H]3C[C@H]3c3ccccc3)CC2)CN(C(=O)c2cc(F)cc(F)c2)C1 (relative stereo) [Example 44, [1-(3,5-Difluorobenzoyl)-3-(4-{[(trans-2-phenylcyclopropyl)amino]methyl}piperidin-1-yl)azetidin-3-yl]acetonitrile] | ≤ 100 |
| N#CCC1(N2CCC(CN[C@@H]3C[C@H]3c3ccccc3)CC2)CN(C(=O)c2ccccc2)C1 (relative stereo) [Example 45, [1-Benzoyl-3-(4-{[(trans-2-phenylcyclopropyl)amino]methyl}piperidin-1-yl)azetidin-3-yl]acetonitrile] | ≤ 100 |
| N#CCC1(N2CCC(CN[C@@H]3C[C@H]3c3ccccc3)CC2)CN(C(=O)c2ccccc2F)C1 (relative stereo) [Example 46, [1-(2-Fluorobenzoyl)-3-(4-{[(trans-2-phenylcyclopropyl)amino]methyl}piperidin-1-yl)azetidin-3-yl]acetonitrile] | ≤ 100 |
